The target in test [1] is PIM1 (Homo sapiens, UniProt P11309). Kind of test: KinaseGlo Pim1 ATP depletion assay. Format: biochemical. In short, it runs like this: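 2.5 nM PIM1 preincubated 15 min with compound and 40 μM BAD peptide in 50 mM HEPES pH 7.5, 5 mM MgCl2, 1 mM DTT, 0.05% BSA, 2.5% DMSO. The reaction was started with 20 μM ATP (final) and run to about 50% ATP depletion. Remaining ATP read by KinaseGlo Plus luminescence to give IC50.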

In test [2] the target is PIM2 (Homo sapiens, UniProt Q9P1W9). As to the kind of experiment: KinaseGlo Pim2 ATP depletion assay. In kind it is biochemical. In short, it runs like this: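 Luminescent ATP-depletion read-out of PIM2 phosphorylating BAD peptide (RSRHSSYPAGT-OH). Final conditions: 5 nM PIM2, 4 μM ATP, 10 μM peptide, 2.5% DMSO in 50 mM HEPES pH 7.5, 5 mM MgCl2, 1 mM DTT, 0.05% BSA. Enzyme–peptide preincubated 15 min with compound; reaction run to ~50% ATP depletion.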
For orientation: Kinase-Glo measures the ATP left after a reaction by luminescence.

Test [3] has as its target PIM3 (Homo sapiens, UniProt Q86V86). As to the kind of experiment: KinaseGlo Pim3 ATP depletion assay. In kind it is biochemical. In short, it runs like this: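 Kinase was preincubated 15 min with BAD peptide in HEPES pH 7.5/MgCl2/DTT/BSA before ATP was added. Final concentrations were 40 μM ATP, 100 μM BAD peptide and 2.5% DMSO, with 5 nM enzyme. The reaction ran to ~50% ATP depletion and remaining ATP was read by KinaseGlo Plus luminescence.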

Test [4] has as its target GSK3β (Homo sapiens, UniProt P49841). Kind of test: GSK3β ATP depletion assay. In kind it is biochemical. The note with it: read-out: GSK3b IC50. In short, it runs like this:
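Human GSK3β (5 nM) preincubated 15 min with 10 μM biotinylated phospho-CREB peptide in pH 7.5 Tris buffer (15 mM MgCl2, 1 mM DTT, 0.1% BSA, 2.5% DMSO). Reaction started with 2 μM ATP and run to about 50% ATP depletion. Remaining ATP measured by KinaseGlo luminescence.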

The test system of test [5] is KMS11 (human myeloma cell line). Kind of test: Cell proliferation assay (CellTiter-Glo), KMS11. In kind it is cell-based. Particulars: Homo sapiens, KMS-11; KMS11-Luc cells. In short, it runs like this: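 KMS11 cells in IMDM with 10% FBS and sodium pyruvate, seeded at 2000 cells/well on assay day. Compound added at 2× to equal volume of cells, incubated 3 days at 37° C. Viability read by CellTiter-Glo luminescence; EC50 derived.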

Structures are written as SMILES. pEC50, pIC50: −log10 of the molar value.

PIM1, sequence (P11309 whole entry): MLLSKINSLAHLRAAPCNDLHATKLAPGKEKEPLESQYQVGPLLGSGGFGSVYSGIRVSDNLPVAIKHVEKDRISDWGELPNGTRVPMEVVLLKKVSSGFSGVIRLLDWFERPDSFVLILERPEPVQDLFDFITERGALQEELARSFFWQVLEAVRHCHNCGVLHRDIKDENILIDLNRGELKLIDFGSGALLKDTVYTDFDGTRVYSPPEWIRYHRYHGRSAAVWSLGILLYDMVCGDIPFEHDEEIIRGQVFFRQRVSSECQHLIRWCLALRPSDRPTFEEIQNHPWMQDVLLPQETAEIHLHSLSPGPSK
PIM2, sequence (Q9P1W9 whole entry): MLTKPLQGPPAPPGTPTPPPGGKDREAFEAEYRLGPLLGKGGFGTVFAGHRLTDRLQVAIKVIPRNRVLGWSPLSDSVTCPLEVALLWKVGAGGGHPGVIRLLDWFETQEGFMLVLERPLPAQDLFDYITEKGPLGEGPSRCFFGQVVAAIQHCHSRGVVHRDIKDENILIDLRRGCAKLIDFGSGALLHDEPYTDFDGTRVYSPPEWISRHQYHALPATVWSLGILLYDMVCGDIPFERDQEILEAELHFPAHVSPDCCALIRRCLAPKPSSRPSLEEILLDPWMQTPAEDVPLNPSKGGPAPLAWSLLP
GSK3β, sequence (P49841 whole entry, species assumed): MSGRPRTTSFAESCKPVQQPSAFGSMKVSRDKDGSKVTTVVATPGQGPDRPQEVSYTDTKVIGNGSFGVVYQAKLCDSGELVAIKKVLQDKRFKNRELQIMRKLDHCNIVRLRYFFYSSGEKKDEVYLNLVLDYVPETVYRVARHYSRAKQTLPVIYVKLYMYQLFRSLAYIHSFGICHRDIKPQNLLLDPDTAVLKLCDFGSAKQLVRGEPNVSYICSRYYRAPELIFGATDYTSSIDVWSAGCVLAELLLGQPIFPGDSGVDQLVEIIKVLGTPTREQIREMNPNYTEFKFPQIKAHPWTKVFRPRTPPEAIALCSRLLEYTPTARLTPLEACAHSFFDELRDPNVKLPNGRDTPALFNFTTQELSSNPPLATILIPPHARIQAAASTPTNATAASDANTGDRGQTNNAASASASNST

The term pIC50 denotes the IC50 on a negative log10 scale, so that one unit is a factor of ten. Usually pEC50 stands for −log10 of the EC50, conventionally taken in molar units. Low values mean a large EC50, high ones a small EC50. On to `C=C[C@H]1OC(c2ccncc2NC(=O)c2ccnc(-c3c(F)cccc3F)n2)=C[C@@H](O)[C@@H]1O` [Example 23, 2-(2,6-difluorophenyl)-N-(4-((2R,3S,4R)-3,4-dihydroxy-2-vinyl-3,4-dihydro-2H-pyran-6-yl)pyridin-3-yl)pyrimidine-4-carboxamide], for which the pIC50 in test [1] is 8.22; in test [2], 7.39; in test [3], 8.10; in test [4], 6.70. This compound had a pEC50 in test [5] of less than 5.00.

As for `C=C[C@H]1OC(c2ccncc2NC(=O)c2nc(-c3ccccc3F)c(F)cc2N)=C[C@@H](O)[C@@H]1O` [Example 24, 3-amino-N-(4-((2R,3S,4R)-3,4-dihydroxy-2-vinyl-3,4-dihydro-2H-pyran-6-yl)pyridin-3-yl)-5-fluoro-6-(2-fluorophenyl)picolinamide], the pIC50 in test [1] is 9.00; in test [2] it was 8.15; in test [3], 8.40; in test [4], 6.75. In test [5], this compound gave a negative-log EC50 (pEC50) of 5.13.

On to `C=C[C@H]1OC(c2ccncc2NC(=O)c2nc(-c3c(F)cccc3F)c(F)cc2N)=C[C@@H](O)[C@@H]1O` [Example 25, 3-amino-6-(2,6-difluorophenyl)-N-(4-((2R,3S,4R)-3,4-dihydroxy-2-vinyl-3,4-dihydro-2H-pyran-6-yl)pyridin-3-yl)-5-fluoropicolinamide], for which the pIC50 in test [1] was 9.00; in test [2] it was 8.70; in test [3], 8.70; in test [4], 6.18. In addition, the negative-log EC50 (pEC50) in test [5] is 5.87.

`CC[C@]1(O)[C@H](O)C[C@H](c2ccncc2NC(=O)c2nc(-c3ccccc3)ncc2N)O[C@@H]1C` [Example 26, 5-amino-N-(4-((2R,4R,5S,6R)-5-ethyl-4,5-dihydroxy-6-methyltetrahydro-2H-pyran-2-yl)pyridin-3-yl)-2-phenylpyrimidine-4-carboxamide]: the pIC50 in test [1] was 8.40; in test [2], 7.54; in test [3] it was 8.70; in test [4], 6.56. Further, the pEC50 in test [5] was less than 5.00.

For the compound `O=C(Nc1cnccc1C1=C[C@@H](O)[C@H](O)[C@@H](CCl)O1)c1ccnc(-c2c(F)cccc2F)n1` [Example 28, N-(4-((2S,3S,4R)-2-(chloromethyl)-3,4-dihydroxy-3,4-dihydro-2H-pyran-6-yl)pyridin-3-yl)-2-(2,6-difluorophenyl)pyrimidine-4-carboxamide], the negative logarithm of the IC50 (pIC50) is 8.70 in test [1], 8.15 in test [2], 8.52 in test [3] and 7.66 in test [4]. For the same compound, the negative logarithm of the EC50 (pEC50) in test [5] is 6.09.

Consider `Nc1cc(F)c(-c2ccccc2F)nc1C(=O)Nc1cnccc1C1=C[C@@H](O)[C@H](O)[C@@H](CCl)O1` [Example 29, 3-amino-N-(4-((2S,3S,4R)-2-(chloromethyl)-3,4-dihydroxy-3,4-dihydro-2H-pyran-6-yl)pyridin-3-yl)-5-fluoro-6-(2-fluorophenyl)picolinamide], for which the pIC50 in test [1] is 9.00; in test [2], 9.00; in test [3], 9.00; in test [4], 7.39. Also, in test [5], the pEC50 is 5.33.

Consider `Nc1cc(F)c(-c2c(F)cccc2F)nc1C(=O)Nc1cnccc1C1=C[C@@H](O)[C@H](O)[C@@H](CCl)O1` [Example 30, 3-amino-N-(4-((2S,3S,4R)-2-(chloromethyl)-3,4-dihydroxy-3,4-dihydro-2H-pyran-6-yl)pyridin-3-yl)-6-(2,6-difluorophenyl)-5-fluoropicolinamide], for which the pIC50 is 9.00 in test [1], 9.00 in test [2], 9.00 in test [3] and 6.70 in test [4]. The compound also showed a pEC50 in test [5] of 6.08.

As to `O=C(Nc1cnccc1C1=C[C@@H](O)[C@H](O)[C@@H](CCl)O1)c1ccc(F)c(-c2c(F)cccc2F)n1` [Example 31, N-(4-((2S,3S,4R)-2-(chloromethyl)-3,4-dihydroxy-3,4-dihydro-2H-pyran-6-yl)pyridin-3-yl)-6-(2,6-difluorophenyl)-5-fluoropicolinamide], the pIC50 in test [1] is 9.00; in test [2], 9.00; in test [3] it was 9.00; in test [4], 6.93. In test [5], this compound gave a pEC50 of 5.72.

Consider `C[C@H]1O[C@@H](c2ccncc2NC(=O)c2nc(-c3c(F)cccc3F)c(F)cc2N)C[C@@H](O)[C@]1(C)O` [Example 33, 3-amino-6-(2,6-difluorophenyl)-N-(4-((2R,4R,5S,6R)-4,5-dihydroxy-5,6-dimethyltetrahydro-2H-pyran-2-yl)pyridin-3-yl)-5-fluoropicolinamide], for which the pIC50 in test [1] was 9.00; in test [2] it was 8.70; in test [3], 8.70; in test [4] it was 6.56. The compound further showed a pEC50 in test [5] of 5.34.

With `CC[C@H]1O[C@@H](c2ccncc2NC(=O)c2ccnc(-c3c(F)cccc3F)n2)C[C@@H](O)[C@@H]1O` [Example 34, 2-(2,6-difluorophenyl)-N-(4-((2R,4R,5S,6R)-6-ethyl-4,5-dihydroxytetrahydro-2H-pyran-2-yl)pyridin-3-yl)pyrimidine-4-carboxamide], the pIC50 in test [1] is 7.66; in test [2], 6.77; in test [3], 7.42; in test [4], 7.21. Moreover, the pEC50 in test [5] is 5.30.

Regarding `Nc1cc(F)c(-c2c(F)cccc2F)nc1C(=O)Nc1cnccc1[C@H]1C[C@@H](O)[C@H](O)[C@@H](CCl)O1` [Example 35, 3-amino-N-(4-((2R,4R,5S,6S)-6-(chloromethyl)-4,5-dihydroxytetrahydro-2H-pyran-2-yl)pyridin-3-yl)-6-(2,6-difluorophenyl)-5-fluoropicolinamide], the negative-log IC50 (pIC50) in test [1] is 9.00; in test [2] it was 9.00; in test [3] it was 9.00; in test [4], 7.06. The same compound had a pEC50 in test [5] of 6.00.

On to `O=C(Nc1cnccc1[C@H]1C[C@@H](O)[C@H](O)[C@@H](CCl)O1)c1ccnc(-c2c(F)cccc2F)n1` [Example 37, N-(4-((2R,4R,5S,6S)-6-(chloromethyl)-4,5-dihydroxytetrahydro-2H-pyran-2-yl)pyridin-3-yl)-2-(2,6-difluorophenyl)pyrimidine-4-carboxamide], for which the pIC50 is 7.92 in test [1], 7.19 in test [2], 7.77 in test [3] and 7.85 in test [4]. In test [5], this compound gave a negative logarithm of the EC50 (pEC50) of less than 5.00.

In the case of `Nc1cc(F)c(-c2ccccc2F)nc1C(=O)Nc1cnccc1[C@H]1C[C@@H](O)[C@H](O)[C@@H](CCl)O1` [Example 38, 3-amino-N-(4-((2R,4R,5S,6S)-6-(chloromethyl)-4,5-dihydroxytetrahydro-2H-pyran-2-yl)pyridin-3-yl)-5-fluoro-6-(2-fluorophenyl)picolinamide], the negative logarithm of the IC50 (pIC50) in test [1] was 9.00; in test [2], 8.52; in test [3], 8.70; in test [4] it was 7.82. The compound further showed a pEC50 in test [5] of 5.16.

Consider `CC[C@H]1O[C@@H](c2ccncc2NC(=O)c2nc(-c3c(F)cccc3F)sc2N)C[C@@H](O)[C@@H]1O` [Example 40, 5-amino-2-(2,6-difluorophenyl)-N-(4-((2R,4R,5S,6R)-6-ethyl-4,5-dihydroxytetrahydro-2H-pyran-2-yl)pyridin-3-yl)thiazole-4-carboxamide], for which the pIC50 in test [1] was 9.00; in test [2] it was 8.70; in test [3] it was 8.70; in test [4] it was 8.70. In test [5], the pEC50 is 6.22.

These data come from patent US20130109682A1, “CYCLIC ETHER COMPOUNDS USEFUL AS KINASE INHIBITORS” (NOVARTIS AG, priority 2010, published 2013).
